Laboratory results from US6593373B2, “Pharmaceutical compositions of O-desmethyl-N-mono-desmethyl-tramadol” (Gruenenthal GmbH, priority 2000, dated 2003).
pIC50: −log10 of the molar value. Read-outs that look alike come from different tables or passages of the source.

Assays:
[1] = test system: mice phenylquinone writhing; assay: Phenylquinone writhing test; type: in vivo
Experimental: Analgesia was tested in vivo in the mice phenylquinone writhing test. M5 was intravenously administered.

mice tail-flick = assay: Tail-flick test; settings: for Tail-Flick, mouse ED50 i.c.v. / Tail-Flick, mouse ED50 i.v. / Analgesia in tail-flick test, in words: mouse
Experimental: Analgesia was tested in vivo in the mice tail-flick test. M5 was first intravenously administered and then directly into a brain ventricle.

[2] = test system: neuronal uptake of norepinephrine (NE); assay: Noradrenaline uptake inhibition, in vitro rat brain; type: biochemical; settings: for pIC50: read-out: Noradrenalin uptake IC50
Excerpt: The inhibition of neuronal uptake of monoamines (norepinephrine; NE) was investigated in in vitro rat brain binding experiments.

[3] = test system: neuronal uptake of Serotonin (5-HT); type: biochemical; settings: rat brain
Excerpt: The inhibition of neuronal uptake of Serotonin (5-HT) was investigated in in vitro rat brain binding experiments.

μ-opioid receptor = target: T1, μ-opioid receptor (Rattus norvegicus, UniProt P33535); assay: μ-opioid (Naloxon) binding, in vitro rat brain
T1 construct: from tissue; host or cells: rat brain
Excerpt: The μ-opioid receptor binding was investigated in in vitro rat brain binding experiments using naloxone.

[4] = rat brain, naloxone, read-out: Naloxone binding IC50

T1 sequence (P33535 whole entry): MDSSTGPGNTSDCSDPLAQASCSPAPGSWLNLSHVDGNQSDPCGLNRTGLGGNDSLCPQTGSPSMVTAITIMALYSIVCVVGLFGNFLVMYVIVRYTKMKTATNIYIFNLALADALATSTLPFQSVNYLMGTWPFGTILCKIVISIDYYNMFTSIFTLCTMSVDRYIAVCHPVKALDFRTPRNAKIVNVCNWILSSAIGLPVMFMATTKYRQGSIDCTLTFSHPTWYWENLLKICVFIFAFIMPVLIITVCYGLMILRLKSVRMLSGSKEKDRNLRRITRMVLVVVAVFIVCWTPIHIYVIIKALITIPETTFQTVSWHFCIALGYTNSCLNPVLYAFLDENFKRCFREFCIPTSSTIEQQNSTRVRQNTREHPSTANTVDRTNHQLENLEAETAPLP

Row | Compound | Writhing, mouse ED50 i.c.v. [1] [μg/animal] | ED50 ([1]; iv, mouse) [mg/kg] | ED50 (mice tail-flick; Mus musculus, iv, read-out: Tail-Flick, mouse ED50 i.v.) [mg/kg] | Tail-Flick, mouse ED50 i.c.v. (mice tail-flick) [μg/animal] | pIC50 [2] | pIC50 [3] | Writhing, mouse ED50 i.v. [1] | Tail-Flick, mouse ED50 i.v. (mice tail-flick) | pIC50 (μ-opioid receptor; [4]) | pIC50 (μ-opioid receptor) | μ-opioid receptor affinity (naloxone binding), in words (μ-opioid receptor; rat brain) | Inhibition of norepinephrine uptake, in words [2] | Inhibition of serotonin uptake, in words [3] | Analgesia in writhing test, in words ([1]; mouse, intravenous administration) | Penetration of the blood brain barrier, in words (mice tail-flick; concluded from i.v. versus i.c.v. analgesia) | Analgesia in tail-flick test, in words (mice tail-flick; direct administration into a brain ventricle) | Analgesia in tail-flick test, in words (mice tail-flick; intravenously administered)
1 | COc1cccc([C@@]2(O)CCCC[C@@H]2CN(C)C)c1 (racemic) [Tramadol, (1RS, 2RS)-2[(dimethylamino)methyl]-1-(3-methoxyphenyl)-cyclohexanol] | 67.3 | 6.93 | 13.6 | 98.0 |  |  |  |  |  |  |  |  |  |  |  |  | 
2 | CN(C)C[C@H]1CCCC[C@]1(O)c1cccc(O)c1 [M1] | 0.58 |  |  | 2.1 | 4.38 | 4.62 | 0.49 mg/kg | 1.90 mg/kg |  |  |  |  |  |  |  |  | 
3 | CNCC1CCCCC1(O)c1cccc(OC)c1 (stereo not drawn) [M2] |  |  |  |  | 5.37 | 4.98 | no effect | no effect | 4.31 |  |  |  |  |  |  |  | 
4 | COc1cccc([C@@]2(O)CCCC[C@@H]2CN)c1 [M3] |  |  |  |  | 4.32 | 4.31 | no effect | no effect | 3.69 |  |  |  |  |  |  |  | 
5 | NC[C@H]1CCCC[C@]1(O)c1cccc(O)c1 [M4] |  |  |  |  | 3.98 | 3.43 | no effect | no effect | 4.62 |  |  |  |  |  |  |  | 
6 | CNCC1CCCCC1(O)c1cccc(O)c1 (stereo not drawn) [M5, O-desmethyl-N-mono-desmethyl-tramadol] | 4.99 |  |  | 32.4 | 4.88 | 3.92 | no effect | no effect |  | 6.51 | strong enough to induce in vivo analgesia | no pronounced effect | no pronounced effect | no pronounced effect | poor penetration of the blood brain barrier | a pronounced effect was seen | no pronounced effect
